Tests used:
[1] = biological target: T1, Human KIF18A (amino acid sequence 1-417) (Homo sapiens, UniProt Q8NI77); assay: Enzymatic activity test (ADP-Glo, microtubule-stimulated KIF18A ATPase); format: biochemical; conditions: 60 μg/mL microtubules, 25 μM ATP, 2.5 nM KIF18A protein, 120 min at ambient temperature, read-out: KIF18A_nM
T1 construct: purchased Viva Biotech (Shanghai) Ltd
T1 sequence (Q8NI77 1-417): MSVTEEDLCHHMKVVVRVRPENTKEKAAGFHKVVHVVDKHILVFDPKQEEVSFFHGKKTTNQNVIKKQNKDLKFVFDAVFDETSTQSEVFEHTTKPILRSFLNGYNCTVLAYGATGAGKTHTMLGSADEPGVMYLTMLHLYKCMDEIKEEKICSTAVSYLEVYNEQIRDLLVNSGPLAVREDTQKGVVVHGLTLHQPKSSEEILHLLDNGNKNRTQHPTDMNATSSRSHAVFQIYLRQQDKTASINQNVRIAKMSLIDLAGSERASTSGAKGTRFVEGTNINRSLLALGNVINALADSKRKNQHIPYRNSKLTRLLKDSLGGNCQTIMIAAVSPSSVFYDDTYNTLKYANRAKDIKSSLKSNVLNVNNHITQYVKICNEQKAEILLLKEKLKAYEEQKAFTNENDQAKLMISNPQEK
Procedure, shortened: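 Microtubule-stimulated ATPase of KIF18A(1-417) run with 60 μg/mL microtubules, 25 μM ATP and 2.5 nM enzyme, compounds at 0-10 μM final, 120 min at ambient temperature. ADP formed was read by ADP-Glo chemiluminescence after two 30-min reagent incubations.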

OVCAR3 cells = assay: Cell proliferation activity test in OVCAR3 cells (CyQUANT Direct); format: cell-based; conditions: Homo sapiens, OVCAR-3, 72 h, 3 days incubation, CyQUANT fluorescence detection, read-out: OVCAR-3_IC50_nM
Procedure, shortened: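 Log-phase cells in RPMI-1640 with 10% FBS were seeded overnight, then exposed to compound at final 0–10 μM (0.2% DMSO) for 3 days at 37 °C, 5% CO2. Proliferation was read by CyQUANT Direct fluorescence after 60 min at 37 °C.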

HT29 cells = assay: CyQuant cell proliferation activity test in HT29 cells; format: cell-based; conditions: Homo sapiens, HT-29, 72 h, 2000 cells per well, 3 days incubation, IC50 by XLFIT, read-out: HT29_IC50_nM
Procedure, shortened: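 Cells seeded at 2000/well in RPMI-1640 with 10% FBS, overnight, then exposed 3 days at 37 °C to compound from 3000 nM top, 3-fold, 9 points, 0.2% DMSO. CyQuant read after 1 h; IC50 from curve fit.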

IC50 [1] [nM] | IC50 (OVCAR3 cells) [nM] | IC50 (HT29 cells) [nM] | Structure (SMILES)
105 | 21 | 26 | O=C(Nc1cc2cccnc2c(N2CCC(F)(F)CC2)n1)c1ccc(NS(=O)(=O)CCO)cc1N1CCC2(CC1)CC2 [Example 44]
32 | 12 | 10 | O=C(Nc1cc(N2CCC(F)(F)CC2)c2nsnc2c1)c1ccc(NS(=O)(=O)CCO)cc1N1CCC2(CC1)CC2 [Example 40, 2-(6-Azaspiro[2.5]oct-6-yl)-4-(2-hydroxyethylsulfonyl)aminophenyl)-N-[4-(4,4-difluoropiperidinyl)benzo[3,4-c]1,2,5-thiadiazole-5-ylcarboxamide]
46 | 26 | 9 | O=C(Nc1cc2ccsc2c(N2CCC(F)(F)CC2)n1)c1ccc(NS(=O)(=O)CCO)cc1N1CCC2(CC1)CC2 [Example 28, N-(7-(4,4-difluoropiperidin-1-yl)thieno[2,3-c]pyridin-5-yl)-4-(2-hydroxyethylsulfonamido)-2-(6-azaspiro[2.5]octan-6-yl)benzamide]
33 | 13 | 14 | O=C(Nc1cc(N2CCC(F)(F)CC2)c2nnccc2c1)c1ccc(NS(=O)(=O)CCO)cc1N1CCC2(CC1)CC2 [Example 82, 2-{6-azaspiro[2.5]octan-6-yl}-N-[8-(4,4-difluoropiperidin-1-yl)misonin-6-yl]-4-(2-hydroxyethanesulfonamido)benzamide]
108 | 236 | 360 | CN1CCN(c2nc(NC(=O)c3ccc(NS(=O)(=O)CCO)cc3N3CCC4(CC3)CC4)cc3cccnc23)CC1 [Example 48]
> 3000 | 1530 | 1790 | N#Cc1c(NC(=O)c2ccc(NS(=O)(=O)CCO)cc2N2CCC3(CC2)CC3)cc2cccnc2c1N1CCC(F)(F)CC1 [Example 74, N-(7-cyano-8-(4,4-difluoropiperidin-1-yl)quinolin-6-yl)-4-((2-hydroxyethyl)sulfon amido)-2-(6-azaspiro[2.5]oct-6-yl)benzamide]
28.7 | 7 | 17 | O=C(Nc1cc2c(c(N3CCC(F)(F)CC3)n1)C(=O)NCC2)c1ccc(NS(=O)(=O)CCO)cc1N1CCC2(CC1)CC2 [Example 43, N-(1-(4,4-difluoropiperidin-1-yl)-8-oxo-5,6,7,8-tetrahydro-2,7-naphthyridin-3-yl)-4-(2-hydroxyethylsulfonamido)-2-(6-azaspiro[2.5]octan-6-yl)benzamide]
387 | 83 | 44 | Cc1ccc2cc(NC(=O)c3ccc(NS(=O)(=O)CCO)cc3N3CCC4(CC3)CC4)c(F)c(N3CCC(F)(F)CC3)c2n1 [Example 75, N-(8-(4,4-difluoropiperidin-1-yl)-7-fluoro-2-methylquinolin-6-yl)-4-((2-hydroxyethyl)sulfonamido)-2-(6-azaspiro[2.5]octan-6-yl)benzamide]
41 | 154 | 425 | NC(=O)c1cnc2c(N3CCC(F)(F)CC3)cc(NC(=O)c3ccc(NS(=O)(=O)CCO)cc3N3CCC4(CC3)CC4)cc2c1 [Example 88, 6-(2-{6-azaspiro[2.5]octan-6-yl}-4-(2-hydroxyethanesulfonamido)benzoylamino)-8-(4,4-difluoropiperidin-1-yl)quinoline-3-carboxamide]
193 | 12 | 11 | Nc1ccc2cc(NC(=O)c3ccc(NS(=O)(=O)CCO)cc3N3CCC4(CC3)CC4)c(F)c(N3CCC(F)(F)CC3)c2n1 [Example 78, N-(2-amino-8-(4,4-difluoropiperidin-1-yl)-7-fluoroquinolin-6-yl)-4-((2-hydroxyethyl)sulfonamido)-2-(6-azaspiro[2.5]octan-6-yl)benzamide]
38 | 15 | 18 | O=C(Nc1cc2nsnc2c(N2CCC(F)(F)CC2)n1)c1ccc(NS(=O)(=O)CCO)cc1N1CCC2(CC1)CC2 [Example 39]
40 | 11 | 25 | Nc1ncc2cc(NC(=O)c3ccc(NS(=O)(=O)CCO)cc3N3CCC4(CC3)CC4)cc(N3CCC(F)(F)CC3)c2n1 [Example 84, N-(2-amino-8-(4,4-difluoropiperidin-1-yl)quinazolin-6-yl)-4-((2-hydroxyethyl)sulfonamido)-2-(6-azaspiro[2.5]oct-6-yl)benzamide]
128 | 18 | 17 | O=C(Nc1cc2cccnc2c(N2CCC(F)(F)CC2)c1F)c1ccc(NS(=O)(=O)CCO)cc1N1CCC2(CC1)CC2 [Example 71, N-(8-(4,4-difluoropiperidin-1-yl)-7-fluoroquinolin-6-yl)-4-((2-hydroxyethyl)sulfonamido)-2-(6-azaspiro[2.5]octan-6-yl]benzamide]
32 | 12 | 17 | O=C(Nc1cc2cncnc2c(N2CCC(F)(F)CC2)n1)c1ccc(NS(=O)(=O)CCO)cc1N1CCC2(CC1)CC2 [Example 58]
191 | 28 | 28 | O=C(Nc1cn2cccc2c(N2CCC(F)(F)CC2)n1)c1ccc(NS(=O)(=O)CCO)cc1N1CCC2(CC1)CC2 [Example 11, N-(1-(4,4-difluoropiperidin-1-yl)pyrrolo[1,2-a]pyrazin-3-yl)-4-(2-hydroxyethylsulfonamido)-2-(6-azaspiro[2.5]octan-6-yl)benzamide]
66 | 18 | 13 | COc1cc2cc(NC(=O)c3ccc(NS(=O)(=O)CCO)cc3N3CCC4(CC3)CC4)nc(N3CCC(F)(F)CC3)c2nn1 [Example 60, N-(8-(4,4-difluoropiperidin-1-yl)-3-methoxypyrido[3,4-c]pyridazin-6-yl)-4-(2-hydroxyethylsulfonamido)-2-(6-azaspiro[2.5]octan-6-yl)benzamide]
39 | 64 | 62 | Cn1ncc2c(N3CCC(F)(F)CC3)nc(NC(=O)c3ccc(NS(=O)(=O)CCO)cc3N3CCC4(CC3)CC4)cc21 [Example 36]
1030 | 1040 | 1110 | O=C(Nc1cc(N2CCC(F)(F)CC2)c2nc(C(F)(F)F)ccc2c1)c1ccc(NS(=O)(=O)CCO)cc1N1CCC2(CC1)CC2 [Example 69, (2-(6-Azaspiro[2.5]octan-6-yl)-4-{[(2-hydroxyethyl)sulfonyl]amino}phenyl)-N-[8-(4,4-difluoropiperidinyl)-2-(trifluoromethyl)(6-quinolinyl)]formamide]
43 | 9 | 16 | [2H]c1c(NC(=O)c2ccc(NS(=O)(=O)CCO)cc2N2CCC3(CC2)CC3)cc2cccnc2c1N1CCC(F)(F)CC1 [Example 70, N-(8-(4,4-difluoropiperidin-1-yl)quinolin-6-yl-7-d)-4-((2-hydroxyethyl)sulphonamino)-2-(6-azaspiro[2.5]octan-6-yl)benzamide]
32 | 9 | 17 | O=C(Nc1cc(N2CCC(F)(F)CC2)c2nccn2c1)c1ccc(NS(=O)(=O)CCO)cc1N1CCC2(CC1)CC2 [Example 14, N-(8-(4,4-difluoropiperidin-1-yl)imidazo[1,2-a]pyridin-6-yl)-4-((2-hydroxyethyl)sulfonamido)-2-(6-azaspiro[2.5]oct-6-yl)benzamide]
2750 | 614 | 1270 | CCC1(C)OCc2c1cc(NC(=O)c1ccc(NS(=O)(=O)CCO)cc1N1CCC3(CC1)CC3)nc2N1CCC(F)(F)CC1 (stereo not drawn) [Example 10, N-(4-(4,4-difluoropiperidin-1-yl)-1-ethyl-1-methyl-1,3-dihydrofuro[3,4-c]pyridin-6-yl)-4-(2-hydroxyethylsulfonamido)-2-(6-azaspiro[2.5]octan-6-yl)benzamide]
153 | 13.9 | 17 | C[C@@H](CO)S(=O)(=O)Nc1ccc(C(=O)Nc2cc3cccnc3c(N3CCC(F)(F)CC3)n2)c(N2CCC3(CC2)CC3)c1 [Example 97, 2-{6-azaspiro[2.5]octan-6-yl}-N-[8-(4,4-difluoropiperidin-1-yl)-1,7-naphthyridin-6-yl]-4-[(2S)-1-hydroxypropane-2-sulfonamido]benzamide]
29 | 27 | 57 | Cn1cnc2c(N3CCC(F)(F)CC3)nc(NC(=O)c3ccc(NS(=O)(=O)CCO)cc3N3CCC4(CC3)CC4)cc21 [Example 35, N-(4-(4,4-difluoropiperidin-1-yl)-1-methyl-1H-imidazolo[4,5-c]pyridin-6-yl)-4-((2-hydroxyethyl)sulfonamido)-2-(6-azaspiro[2.5]octan-6-yl)benzamide]

Source: patent publication US20260159500A1, “KINESIN KIF18A INHIBITOR AND USE THEREOF” (SHANGHAI APEIRON THERAPEUTICS COMPANY LIMITED, priority 2022, published 2026)
